# Results: US7074791B2, “Pyrrolo[1,2-b]pyridazine compounds and their uses” (Pfizer Inc., priority 2002, dated 2006)
row,melting point [°C],Structure (SMILES)
1,115 to 118,"CCC(CC)Nc1cc(C)nn2c(-c3ccc(Cl)cc3Cl)c(C)cc12 [Example 1, 7-(2,4-dichlorophenyl)-N-(1-ethylpropyl)-2,6-dimethylpyrrolo[1,2-b]pyridazin-4-amine]"
2,154 to 155,"COCC(COC)Nc1cc(C)nn2c(-c3ccc(Cl)cc3Cl)c(C)cc12 [Example 2, 7-(2,4-dichlorophenyl)-N-[2-methoxy-1-(methoxymethyl)ethyl]-2,6-dimethylpyrrolo[1,2-b]pyridazin-4-amine]"
